Test [1] deals with Aβ secretion, HEK293 cells transfected with APP695 and SrcYF. The test is described as follows: Aβ accumulation in culture medium of HEK293 cells co-transfected with APP695 and active Src (SrcYF), sandwich ELISA (FIG. 5). Type of test: cell-based, Human. Particulars: exposure for 48 hours to 1, 5 and 20 μM PP2 or PP3, sandwich ELISA on culture medium. The procedure: Human embryonic kidney cells (HEK293) were cultured in Dulbecco's modified minimal medium supplemented with 10% fetal calf serum at 37° C. in a 5% CO2 atmosphere. For transfection, cells were grown for 16 hours in antibiotic-free medium, and transfected with Lipofectamine 2000 (Invitrogen) according to manufacturer's instructions. The total amount of DNA was maintained constant by addition of empty vector DNA. […] The extracts were clarified by centrifugation at 16,000×g at 4° C., and the protein concentration determined by the Bio-Rad protein assay according to manufacturer's instructions. […] Radioactive samples were resolved on 10% SDS-PAGE and quantitated with a Storm 840 phosphorimager (Amersham Pharmacia Biotech). […]
HEK293 cells were transfected with APP695 expression vectors. […] HEK293 cells were co-transfected with APP and either empty vector, or active Abl (Abl-PP), or active Src (SrcYF) kinases, and the secretion of APPsec and β were evaluated. […] Both medium and protein extracts have been used in immunoprecipitation experiments for quantitative dosage of radiolabeled APPsec and holo-APP, respectively. […]
For orientation: In an ELISA, binding on a coated surface is turned into a signal by an enzyme label.

Test [2] has as its system Aβ secretion, CHO cells stably overexpressing APP751. The test is described as follows: Aβ secretion from CHO cells stably overexpressing APP751 treated with PP2 or PP3 (FIG. 6). The following applies: PP2 5 and 20 μM, PP3 20 μM (highest concentration), time points 1, 3 and 12 hours. Type of test: cell-based. On the procedure: Therefore, a line of CHO cells stably overexpressing APP751 form was used, which secretes discrete levels of Aβ. If secretion involves endogenous Src activity, PP2 should be able to inhibit production of Aβ also in this cellular system.
Human embryonic kidney cells (HEK293) were cultured in Dulbecco's modified minimal medium supplemented with 10% fetal calf serum at 37° C. in a 5% CO2 atmosphere. For transfection, cells were grown for 16 hours in antibiotic-free medium, and transfected with Lipofectamine 2000 (Invitrogen) according to manufacturer's instructions. The total amount of DNA was maintained constant by addition of empty vector DNA. 48 hours after transfection, culture medium were recovered, while cells were harvested in ice-cold phosphate buffer saline (PBS) and gently lysed in lysis buffer (50 mM Tris/HCl, pH 7.5, 150 mM NaCl, 0.5% Triton X-100, 10% glycerol, 50 mM NaF, 1mM Na vanadate), in the presence of a protease inhibitor cocktail (Complete, EDTA-free, Roche). The extracts were clarified by centrifugation at 16,000×g at 4° C., and the protein concentration determined by the Bio-Rad protein assay according to manufacturer's instructions. […] Radioactive samples were resolved on 10% SDS-PAGE and quantitated with a Storm 840 phosphorimager (Amersham Pharmacia Biotech). […]

Consider `CC(C)(C)n1nc(-c2ccc(Cl)cc2)c2c(N)ncnc21` [PP2, 4-amino-5-(4-chlorophenyl)-7-(t-butyl)pyrazolo[3,4d]pyrimidine], for which, in test [1], the “secreted Aβ” value is listed as “dose-dependent decrease of secreted AP”. In test [2], the “amount of Aβ” value was “reduces in a dose-dependent manner the amount of Aβ”.
Turning to `Nc1ncnc2c1cnn2-c1ccccc1` [PP3], the “secreted Aβ” value in test [1] is “do not affect Aβ rise by SrcYF transfection”. The “amount of Aβ” value in test [2] is “has no effect”.

(Values after patent US20040176313A1, “Inhibitors of Src kinase for use in alzheimer's disease” (Aventis Pharma S.A., priority 2002, published 2004).)
